Literature values in patent US20230009337A1, “Liberty Vitamins and Drinks” (priority 2021, published 2023).

What was measured:
mice = conditions: acetone/olive oil placed on the mice for 4 weeks
TWIK2 potassium channels = biological target: T1, TWIK2 potassium channels (Homo sapiens, UniProt Q9Y257); conditions: macrophage white blood cell; discovered by Dr. Jalees Rehman and Professor Asrar Malik, University of Illinois in Chicago
T1 construct: host or cells: macrophage white blood cell (as described in the diagram)
T1 sequence (Q9Y257 1-313): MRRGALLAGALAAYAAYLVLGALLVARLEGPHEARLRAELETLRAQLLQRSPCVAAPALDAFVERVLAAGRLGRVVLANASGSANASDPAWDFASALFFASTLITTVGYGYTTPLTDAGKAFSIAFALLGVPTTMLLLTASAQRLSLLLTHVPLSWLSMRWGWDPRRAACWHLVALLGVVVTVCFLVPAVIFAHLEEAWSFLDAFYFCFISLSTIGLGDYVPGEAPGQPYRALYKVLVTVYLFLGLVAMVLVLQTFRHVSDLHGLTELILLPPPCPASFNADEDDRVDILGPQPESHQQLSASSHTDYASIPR

inhibition of TWIK2 channels (TWIK2 potassium channels): can inhibit
Structure (SMILES): C=C[C@H]1C[N@@]2CC[C@H]1C[C@H]2[C@H](O)c1ccnc2ccc(OC)cc12 [Quinine]
loss of skin and flesh (skin inflammation) (mice): did not have a loss of skin and flesh
